Holding throughout (type): cell-based
One experiment concerns K562 cells. Nature of the experiment: Cell growth inhibitory activity assay (CellTiter-Glo), K562 cells. The conditions noted are these: Homo sapiens, 72 h, CTG cell viability. A digest of the protocol:
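K562 cells in logarithmic growth were counted, diluted and plated in 96-well plates, with medium-only blanks and a separate T0 plate read by CTG the following day. After overnight incubation, graded compound concentrations were added for 72 h, with 0.5% DMSO wells as growth controls. Luminescence was read on a Biotek cytation3.0, and IC50 came from nonlinear fitting in GraphPad Prism 7.0.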

Another experiment has as its target T1, Ba/F3 BCR-ABL1 WT (Homo sapiens, UniProt P00519+P11274).
T1 construct: BCR (N-terminal fusion partner of the oncoprotein); expressed in transfected cells; host or cells: Ba/F3 (lentiviral transduction, monoclonal line)
Nature of the experiment: Cell growth inhibitory activity assay (CellTiter-Glo), Ba/F3 BCR-ABL1 WT cells. Conditions: 72 h, CTG cell viability. The method in brief:
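Ba/F3 parental cells or Ba/F3 lines lentivirally transduced with WT or mutant BCR-ABL1, seeded overnight then exposed to serially diluted compound 72 h at 37 °C, 5% CO2. Viability by CellTiter-Glo ATP luminescence with a T0 plate; 0.5% DMSO controls; IC50 from four-parameter nonlinear fit.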
On the technique in general: ATP-based viability assays read luminescence as a measure of living cells.

The target of another experiment is T2, Ba/F3 BCR-ABL1 T315I (Homo sapiens, UniProt P00519+P11274, T315I).
T2 construct: BCR (N-terminal fusion partner of the oncoprotein); expressed in transfected cells; host or cells: Ba/F3 (lentiviral transduction, monoclonal line)
Briefly: Cell growth inhibitory activity assay (CellTiter-Glo), Ba/F3 BCR-ABL1 T315I cells. Conditions: 72 h, CTG cell viability. The method in brief:
(§1)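 Luminescent ATP read-out (CellTiter-Glo) after 72 h compound exposure at 37 °C, 5% CO2. Cells: monoclonal Ba/F3 lentivirally engineered with mutant BCR-ABL1, or parental Ba/F3. A T0 plate read the day after seeding; 0.5% DMSO wells as uninhibited growth control. IC50 via variable-slope logistic fit of % inhibition.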

The target of another experiment is T3, Ba/F3 BCR-ABL1 T315M (Homo sapiens, UniProt P00519+P11274, T315M).
T3 construct: BCR (N-terminal fusion partner of the oncoprotein); expressed in transfected cells; host or cells: Ba/F3 (lentiviral transduction, monoclonal line)
Briefly: Cell growth inhibitory activity assay (CellTiter-Glo), Ba/F3 BCR-ABL1 T315M cells. Conditions: 72 h, CTG cell viability. The procedure: In this assay, the Celltiter-Glo (CTG) kit provided by Promega was used, and it is a homogeneous cell viability assay method. The cell viability of cultured cells was measured by quantifying ATP. K562 cells were purchased from Nanjing Kebai, product number CBP60529; Ba/F3 parental cells were purchased from RIKEN BRC, product number RCB0805; other cells containing BCR-ABL1 WT, BCR-ABL1 T315I, BCR-ABL1 T315M, BCR-ABL1 Y253H/E255K, BCR-ABL1 E255V/T3151, BCR-ABL1 A424T, BCR-ABL1 A337V, BCR-ABL1 P465S, BCR-ABL1 V468F, and BCR-ABL1 I502L were all monoclonal engineered cell lines obtained by transducting Ba/F3 parental cells with the lentivirus plasmids containing WT or corresponding mutated BCR-ABL1.
The steps of cell viability assay are as follows: • a) Cells in logarithmic growth phase were collected. Cell suspension was prepared and the cells were counted. Concentration of the cells was calculated. • b) The cell suspension was diluted to the required concentration and then added to the middle wells of a 96-well plate, and PBS was added to the edge wells. The wells with no cells and only culture medium were used as blank controls. • c) In addition to the cell plate used for compound analysis, another 96-well plate was prepared as a T0 plate, and 3-6 blank wells and 3-6 cell wells were added. The next day, CTG was used to test the cell viability as the T0 viability value of the cells. • d) The cell plate was incubated at 37 °C in a 5% CO2 incubator overnight. • e) The next day, each concentration of a compound subjected to a gradient dilution was added, and the cell plate was incubated at 37 °C in a 5% CO2 incubator for 72 h. The wells with no compound and only 0.5% DMSO were used as positive controls for cell growth. • f) CTG reagent (CellTiter-Glo kit) was added according to the manufacturer's instructions to test the cell viability value. • g) The plate was read using Biotek cytation3.0 microplate reader and the data were exported. • h) IC50 was calculated using GraphPad Prism 7.0 software.
The IC50 (half-maximal inhibitory concentration) of the compound was obtained using the following nonlinear fitting formula: Y = Bottom + (Top−Bottom)/(1+10^(∧)((LogIC50−X)*HillSlope)) [formula] • X: Log value of the compound concentration • Y: Inhibition rate (% inhibition) • Top: Maximum response • Bottom: Baseline response • HillSlope: Slope of the curve
The formula for calculating cell inhibition rate (inhibition rate %) was: [formula]

The next experiment has as its system Ba/F3 parental cells. Nature of the experiment: Cell growth inhibitory activity assay (CellTiter-Glo), Ba/F3 parental cells. Conditions: Mus musculus, BaF3, 72 h, CTG cell viability, read-out: IC50 Ba/F3 BCR-ABL1 Parental. The method in brief: as §1

As to `CC(=O)N[C@H]1CCC2c3cc(C(=O)Nc4ccc(OC(F)(F)Cl)cc4)cc(-c4cnc5c(c4)C(=O)N(C)C5)c3N(C(C)C)C21` (stereo partly drawn) [T-11-A, (3S)-3-acetamido-N-(4-(chlorodifluoromethoxy)phenyl)-4-isopropyl-5-(6-methyl-5-oxo-6,7-dihydro-5H-pyrrolo[3,4-b]pyridin-3-yl)-1,2,3,3a,4,8b-hexahydrocyclopenta[b]indole-7-carboxamide], the IC50 with K562 cells is 50 to 1000 nM; against Ba/F3 BCR-ABL1 WT it was 50 to 1000 nM; on Ba/F3 BCR-ABL1 T315I, over 1000 nM; against Ba/F3 BCR-ABL1 T315M it was over 1000 nM; in the experiment with Ba/F3 parental cells it was over 1000 nM.
`CC(=O)N[C@@H]1CCC2c3cc(C(=O)Nc4ccc(OC(F)(F)Cl)cc4)cc(-c4cnc5c(c4)C(=O)N(C)C5)c3N(C(C)C)C21` (stereo partly drawn) [T-11-B, (3R)-3-acetamido-N-(4-(chlorodifluoromethoxy)phenyl)-4-isopropyl-5-(6-methyl-5-oxo-6,7-dihydro-5H-pyrrolo[3,4-b]pyridin-3-yl)-1,2,3,3a,4,8b-hexahydrocyclopenta[b]indole-7-carboxamide]: the IC50 with K562 cells was at most 5 nM; against Ba/F3 BCR-ABL1 WT it was at most 5 nM; at Ba/F3 BCR-ABL1 T315I, 5 to 50 nM; at Ba/F3 BCR-ABL1 T315M, 50 to 1000 nM; in the experiment with Ba/F3 parental cells, over 1000 nM.
For the compound `CC(=O)N[C@H]1CCC2c3cc(C(=O)Nc4ccc(OC(F)(F)Cl)cc4)cc(-c4cnccn4)c3N(C(C)C)C21` (stereo partly drawn) [T-12-A, (3S)-3-acetamido-N-(4-(chlorodifluoromethoxy)phenyl)-4-isopropyl-5-(pyrazin-2-yl)-1,2,3,3a,4,8b-hexahydrocyclopenta[b]indole-7-carboxamide], the IC50 in the experiment with K562 cells is 50 to 1000 nM; at Ba/F3 BCR-ABL1 WT it was 50 to 1000 nM; at Ba/F3 BCR-ABL1 T315I it was over 1000 nM; at Ba/F3 BCR-ABL1 T315M it was over 1000 nM; with Ba/F3 parental cells it was over 1000 nM.
Regarding `CC(=O)N[C@@H]1CCC2c3cc(C(=O)Nc4ccc(OC(F)(F)Cl)cc4)cc(-c4cnccn4)c3N(C(C)C)C21` (stereo partly drawn) [T-12-B, (3R)-3-acetamido-N-(4-(chlorodifluoromethoxy)phenyl)-4-isopropyl-5-(pyrazin-2-yl)-1,2,3,3a,4,8b-hexahvdrocyclopentalblindole-7-carboxamide], the IC50 in the experiment on K562 cells is at most 5 nM; against Ba/F3 BCR-ABL1 WT, at most 5 nM; against Ba/F3 BCR-ABL1 T315I, 5 to 50 nM; on Ba/F3 BCR-ABL1 T315M, 50 to 1000 nM; in the experiment on Ba/F3 parental cells, over 1000 nM.
Consider `C[C@@H]1CC[S+]([O-])c2nc3cc(C(=O)Nc4ccc(OC(F)(F)Cl)cc4)cc(-c4cnc5c(c4)C(=O)N(C)C5)c3n21` (stereo partly drawn) [T-27, (4R)-N-(4-(chlorodifluoromethoxy)phenyl)-4-methyl-6-(6-methyl-5-oxo-6,7-dihydro-5H-pyrrolo[3,4-b]pyridin-3-yl)-3,4-dihydro-2H-benzo[4,5]imidazo[2,1-b][1,3]thiazine-8-carboxamide 1-oxide], for which the IC50 was at most 5 nM in the experiment with K562 cells; 5 to 50 nM on Ba/F3 BCR-ABL1 WT; 50 to 1000 nM at Ba/F3 BCR-ABL1 T315I; over 1000 nM against Ba/F3 BCR-ABL1 T315M; over 1000 nM in the experiment on Ba/F3 parental cells.
On to `C[C@@H]1CCS(=O)(=O)c2nc3cc(C(=O)Nc4ccc(OC(F)(F)Cl)cc4)cc(-c4cnc5c(c4)C(=O)N(C)C5)c3n21` [T-28, (R)-N-(4-(chlorodifluoromethoxy)phenyl)-4-methyl-6-(6-methyl-5-oxo-6,7-dihydro-5H-pyrrolo[3,4-b]pyridin-3-yl)-3,4-dihydro-2H-benzo[4,5]imidazo[2,1-b][1,3]thiazine-8-carboxamide 1,1-dioxide], for which the IC50 is at most 5 nM in the experiment on K562 cells; 5 to 50 nM against Ba/F3 BCR-ABL1 WT; 5 to 50 nM at Ba/F3 BCR-ABL1 T315I; 50 to 1000 nM at Ba/F3 BCR-ABL1 T315M; over 1000 nM in the experiment on Ba/F3 parental cells.
As for `C[C@@H]1COCc2nc3cc(C(=O)Nc4ccc(OC(F)(F)Cl)cc4)cc(-c4cnc5c(c4)C(=O)NC5)c3n21` [T-30, (R)-N-(4-(chlorodifluoromethoxy)phenyl)-4-methyl-6-(5-oxo-6,7-dihydro-5H-pyrrolo[3,4-b]pyridin-3-yl)-3,4-dihydro-1H-benzo[4,5]imidazo[2,1-c][1,4]oxazine-8-carboxamide], the IC50 with K562 cells is at most 5 nM; against Ba/F3 BCR-ABL1 WT, at most 5 nM; on Ba/F3 BCR-ABL1 T315I, 50 to 1000 nM; against Ba/F3 BCR-ABL1 T315M it was 5 to 50 nM; in the experiment on Ba/F3 parental cells it was over 1000 nM.
Regarding `O=C(Nc1ccc(OC(F)(F)Cl)cc1)c1cnc(N2CC[C@@H](F)C2)c(-c2cnc3c(c2)-c2nn(-c4ncc(F)cn4)cc2C3F)c1` (stereo partly drawn) [T-130, N-(4-(chlorodifluoromethoxy)phenyl)-5-(4-fluoro-2-(5-fluoropyrimidin-2-yl)-2,4-dihydropyrazolo[3',4':3,4]cyclopenta[1,2-b]pyridin-7-yl)-6-((R)-3-fluoropyrrolidin-1-yl)nicotinamide], the IC50 was at most 5 nM with K562 cells, at most 5 nM at Ba/F3 BCR-ABL1 WT, at most 5 nM on Ba/F3 BCR-ABL1 T315I and over 1000 nM in the experiment on Ba/F3 parental cells.
Consider `O=C(Nc1ccc(OC(F)(F)Cl)cc1)c1cnc(N2CC[C@@H](F)C2)c(-c2cnc3c(c2)-c2c(cnn2-c2ncc(F)cn2)C3F)c1` (stereo partly drawn) [T-131, N-(4-(chlorodifluoromethoxy)phenyl)-5-(4-fluoro-1-(5-fluoropyrimidin-2-yl)-1,4-dihydrepyrazolo[3',4':3,4]cyclopenta[1,2-b]pyridin-7-yl)-6-((R)-3-fluoropyrrolidin-1-yl)nicotinamide], for which the IC50 was 5 to 50 nM in the experiment with K562 cells, 50 to 1000 nM on Ba/F3 BCR-ABL1 WT, 50 to 1000 nM at Ba/F3 BCR-ABL1 T315I and over 1000 nM in the experiment with Ba/F3 parental cells.
With `Nc1nc(N2CC[C@@H](F)C2)c(-c2cnc3c(c2)-c2nn(-c4ncc(F)cn4)cc2C3)cc1C(=O)Nc1ccc(OC(F)(F)Cl)cc1` [T-132, (R)-2-amino-N-(4-(chlorodifluoromethoxy)phenyl)-5-(2-(5-fluoropyrimidin-2-yl)-2,4-dihydropyrazolo[3',4':3,4]cyclopenta[1,2-b]pyridin-7-yl)-6-(3-fluoropyrrolidin-1-yl)nicotinamide], the IC50 in the experiment with K562 cells was at most 5 nM; against Ba/F3 BCR-ABL1 WT, at most 5 nM; at Ba/F3 BCR-ABL1 T315I, at most 5 nM; with Ba/F3 parental cells, 50 to 1000 nM.
In the case of `N#Cc1ccnc(-n2cc3c(n2)-c2cc(-c4cc(C(=O)Nc5ccc(OC(F)(F)Cl)cc5)c(N)nc4N4CC[C@@H](F)C4)cnc2C3)n1` [T-133, (R)-2-amino-N-(4-(chlorodifluoromethoxy)phenyl)-5-(2-(4-cvanopyrimidin-2-yl)-2,4-dihydropyrazolo[3',4':3,4]cyclopenta[1,2-b]pyridin-7-yl)-6-(3-fluoropyrrolidin-1-yl)nicotinamide], the IC50 with K562 cells was at most 5 nM; on Ba/F3 BCR-ABL1 WT, at most 5 nM; against Ba/F3 BCR-ABL1 T315I, at most 5 nM; with Ba/F3 parental cells, over 1000 nM.
As for `N#Cc1cnc(-n2cc3c(n2)-c2cc(-c4cc(C(=O)Nc5ccc(OC(F)(F)Cl)cc5)c(N)nc4N4CC[C@@H](F)C4)cnc2C3)nc1` [T-134, (R)-2-amino-N-(4-(chlorodifluoromethoxy)phenyl)-5-(2-(5-cyanopyrimidin-2-yl)-2,4-dihydropyrazolo[3',4':3,4]cyclooenta[1,2-b]pyridin-7-yl)-6-(3-fluoropyrrolidin-1-yl)nicotinamide], the IC50 is at most 5 nM with K562 cells, at most 5 nM against Ba/F3 BCR-ABL1 WT, 50 to 1000 nM against Ba/F3 BCR-ABL1 T315I and 50 to 1000 nM in the experiment on Ba/F3 parental cells.

Values taken from patent publication EP4768484A1, “HETEROCYCLIC FUSED RING COMPOUND, AND COMPOSITION AND USE THEREOF” (Shenzhen TargetRx, Inc., priority 2023, dated 2025).
